Results published in US8067411B2, “Compounds” (AstraZeneca AB, priority 2006, dated 2011).

Biological target: T1, Recombinant human TLR7 (Homo sapiens, UniProt Q9NYK1)
T1 construct: expressed in transfected cells; host or cells: HEK293 cell line stably expressing the pNiFty2-SEAP reporter plasmid; TLR7 in pUNO vector, blasticidin selection
T1 sequence (Q9NYK1 27-1049): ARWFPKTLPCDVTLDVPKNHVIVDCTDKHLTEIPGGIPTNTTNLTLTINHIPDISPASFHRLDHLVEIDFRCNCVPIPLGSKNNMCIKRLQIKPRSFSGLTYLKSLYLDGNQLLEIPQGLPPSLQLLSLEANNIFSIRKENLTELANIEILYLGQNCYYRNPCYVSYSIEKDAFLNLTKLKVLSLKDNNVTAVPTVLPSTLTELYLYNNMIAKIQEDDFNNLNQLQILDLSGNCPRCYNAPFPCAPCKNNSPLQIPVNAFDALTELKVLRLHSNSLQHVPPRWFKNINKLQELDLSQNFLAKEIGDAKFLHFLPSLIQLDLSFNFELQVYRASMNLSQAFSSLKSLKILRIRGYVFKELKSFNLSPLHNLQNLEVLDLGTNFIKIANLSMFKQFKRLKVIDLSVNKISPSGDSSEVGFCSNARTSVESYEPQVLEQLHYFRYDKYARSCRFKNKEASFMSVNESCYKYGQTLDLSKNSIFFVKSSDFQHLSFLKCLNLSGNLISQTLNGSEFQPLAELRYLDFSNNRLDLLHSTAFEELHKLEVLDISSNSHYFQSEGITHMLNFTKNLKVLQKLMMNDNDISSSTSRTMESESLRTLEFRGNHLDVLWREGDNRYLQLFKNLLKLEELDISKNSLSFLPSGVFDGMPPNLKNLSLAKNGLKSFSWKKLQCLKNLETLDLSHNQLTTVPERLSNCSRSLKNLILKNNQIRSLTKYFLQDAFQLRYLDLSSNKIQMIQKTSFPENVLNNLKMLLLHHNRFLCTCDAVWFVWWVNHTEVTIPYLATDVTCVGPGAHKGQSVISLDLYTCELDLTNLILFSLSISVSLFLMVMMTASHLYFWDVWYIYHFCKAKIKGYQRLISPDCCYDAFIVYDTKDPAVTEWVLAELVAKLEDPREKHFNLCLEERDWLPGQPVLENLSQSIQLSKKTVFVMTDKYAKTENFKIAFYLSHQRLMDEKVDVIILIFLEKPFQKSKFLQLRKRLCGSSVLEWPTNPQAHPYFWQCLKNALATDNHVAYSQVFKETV
Experiment: Human TLR7 assay (SEAP reporter in HEK293 cells)
Type: cell-based
Details: log of the minimal effective concentration of compound to induce SEAP release; HEK293 pNiFty2-SEAP reporter cell line, overnight incubation at 37° C., 0.1% (v/v) DMSO
Excerpt: Recombinant human TLR7 was stably expressed in a HEK293 cell line already stably expressing the pNiFty2-SEAP reporter plasmid; integration of the reporter gene was maintained by selection with the antibiotic zeocin. The most common variant sequence of human TLR7 (represented by the EMBL sequence AF240467) was cloned into the mammalian cell expression vector pUNO and transfected into this reporter cell-line. Transfectants with stable expression were selected using the antibiotic blasticidin. In this reporter cell-line, expression of secreted alkaline phosphatase (SEAP) is controlled by an NFkB/ELAM-1 composite promoter comprising five NFkB sites combined with the proximal ELAM-1 promoter. TLR signaling leads to the translocation of NFkB and activation of the promoter results in expression of the SEAP gene. TLR7-specific activation was assessed by determining the level of SEAP produced following overnight incubation of the cells at 37° C. with the standard compound in the presence of 0.1% (v/v) dimethylsulfoxide (DMSO). Concentration dependent induction of SEAP production by compounds was expressed as the log of the minimal effective concentration of compound to induce SEAP release (pMEC).

| Compound | pMEC |
| --- | --- |
| CCCCOc1nc(N)c2[nH]c(=O)n(CCCN(CCCN3CCOCC3)Cc3ccc(SC)cc3)c2n1 [Example 8, 6-Amino-2-butoxy-9-{3-[[4-(methylthio)benzyl] (3-morpholin-4-ylpropyl)amino]propyl}-7,9-dihydro-8H-purin-8-one] | 7.2 |
| CCCCOc1nc(N)c2[nH]c(=O)n(CCCN(CCCN3CCOCC3)Cc3cc(OC)cc(OC)c3)c2n1 [Example 12, 6-Amino-2-butoxy-9-{3-[(3,5-dimethoxybenzyl)(3-morpholin-4-ylpropyl)amino]propyl}-7,9-dihydro-8H-purin-8-one] | >7.7 |
| CCCCOc1nc(N)c2[nH]c(=O)n(CCCN(CCCN3CCOCC3)Cc3ccc(-n4cncn4)cc3)c2n1 [Example 16, 6-Amino-2-butoxy-9-(3-{(3-morpholin-4-ylpropyl)[4-(1H-1,2,4-triazol-1-yl)benzyl]amino}propyl)-7,9-dihydro-8H-purin-8-one] | 7.4 |
